These results are taken from US6660300B1, “Method of use of a biphasic controlled release delivery system for high solubility pharmaceuticals and method” (Bristol-Myers Squibb Co., priority 1998, dated 2003).

Where a name gives a salt, the structure may show the parent alone.

Data set [1] is described as follows: compaction susceptibility.
A short description of data set [2]: hygroscopicity at 95% relative humidity/25° C.
For data set [3] the following is noted: cited from earlier work.

In the case of `CN(C)C(=N)N=C(N)N` [metformin (2:1) fumarate, Metformin (2:1) Fumarate], the compaction susceptibility entry in data set [1] is listed as “low”. Also, the “hygroscopicity, moisture uptake” value in data set [2] (at 6 hours) is “less than 7%”.

Consider `CN(C)C(=N)NC(=N)N` [metformin (2:1) succinate, Metformin (2:1) Succinate], for which the compaction susceptibility result in data set [1] is “low”. In data set [2] (at 30 minutes), the “hygroscopicity, moisture uptake” value is “less than 1%”.

Consider `CN(C)C(=N)N=C(N)N` [metformin], for which the “area under the plasma concentration-time profile, jejunum compared with ileum” value in data set [3] (drug perfused into jejunum versus ileum) was 2.5 fold. Besides, the drug in plasma result in data set [3] (drug perfused into the colon) is recorded as “not detectable”.
